Data on one substance can be found in patent publication US5641480A, “Hair care compositions comprising heteroatom containing alkyl aldonamide compounds” (Lever Brothers Company, Division of Conopco, Inc., priority 1994, dated 1997).

Series [1] can be described thus: Area per molecule at the water/air interface (Example 95). The series is classed as physicochemical. To be noted: 60 °C. The source says: The area per molecule of a surfactant at the water/air interface provides information on the degree of packing and the orientation of the adsorbed surfactant molecule. While not wishing to be bound by theory, it is believed that surfactants that have small area per molecule values tend to pack more closely at the interface than those with large area per molecule values. From the surface excess concentration at surface saturation (Γmax), the area per molecule (am) of C8 /C10 oxypropyl D-gluconamide was determined and is given by:
am =1×10^16 /Nav Γmax

The nature of series [2]: Micellar shape and structure, packing parameter (Example 96). To be noted: T=333.15° K. The source says: A theory of miceIlar structure, based upon the geometry of various micelle shapes and the space occupied by the surfactant has been disclosed by J. N. Israelachvili, D. J. Mitchell and B. W. Ninham in the J. Chem. Soc. Faraday Trans. 2, 1525, 72, (1976) which is given as the packing parameter (p).
VT =V(CH3) +(nc -1)V(CH2) and represents the volume occupied by the hydrophobic groups in the miceliar core at a given temperature.
1c= 1.50+1.26 nc Å and represents the length of the hydrophobic group in the core.
am =area per molecule or the cross-sectional area occupied by the hydrophilic group at the interface.
nc =total number of carbons in the alkyl chain.

Series [3] in a line: Clarity of prototype shampoo compositions with sodium lauryl sulfate (Example 87). It counts as physicochemical. The conditions noted are these: room temperature, 6 months. On the procedure:
(§1) The prototype shampoo composition is as follows:
(§2) The above formulations were prepared by admixing the above ingredients in listed order and heating the mixture to about 80° C. with rapid stirring. The mixture was then cooled to about 40° C., placed in a clear jar and stored at room temperature for 6 months.

A short description of series [4]: Viscosity of prototype shampoo compositions of Example 86, Brookfield Digital Viscometer. The conditions noted are these: 4.0% thickener. It counts as physicochemical. The text has this: The results are as follows:
For a further series, the system named is zein. The text has this:
The zein solubilization assay was developed to determine the biological effects of surfactants on the skin. The protein is normally in soluble in water, but can be brought into solution by interaction with surfactants. The extent of zein dissolved is related to the irritation potential (M. J. Schwinger, Kolloid-Z. Z. Poly., 233, 848, 1969). The greater the zein solubilization, the greater the irritation potential of that surfactant on the skin.
Thus, a 1% solution of surfactant (30 mls) was added to 1.5 g of zein and stirred at room temperature for 1 hour. Residual zein was collected and dried to constant weight. Differences between starting and residual weights were used to calculate % zein solubilized.

A short description of series [5]: Viscosity of prototype shampoo compositions with sodium lauryl sulfate, Brookfield Digital Viscometer (Example 88). The conditions noted are these: vs no thickener. It counts as physicochemical. On the procedure: as §1, §2
It is well known that the viscosity of a liquid composition comprising of anionic surfactant can be modified by the addition of inorganic salts, such as sodium chloride. However, in the absence of an organic modifier, high levels of salt may be necessary to achieve the required viscosity which may lead to problems of storage at cold temperature or even salting out certain ingredients. In practice, however, the viscosity of a liquid composition is modified by the simultaneous addition of thickener and small amounts of inorganic salt (viscosity cobuilder). The combined effect is greater than either one alone. The viscosity of the above prototype shampoo composition comprising various amounts of heteroatom containing alkyl aldonamide compound is as follows: […]

Series [6] can be described thus: Effectiveness in reducing surface tension (Example 93). It counts as physicochemical. The conditions noted are these: 60 °C. The source says: As mentioned before, surface tension reduction depends on the replacement of water molecules at the interface by surfactant molecules, therefore the effectiveness of a surfactant in reducing interfacial surface tension should reflect the saturated concentration of surfactant at the interface relative to that in bulk liquid phase. During this process the surface tension of water steadily decreases as bulk phase surfactant concentration increases. This will continue until the concentration reaches the critical micelle concentration (CMC), above which the surface tension remains nearly unchanged and the interface is saturated with surfactant. The surface tension at the CMC is therefore very close to the minimum interfacial tension or maximum surface pressure that the system can achieve. The surface pressure at this point, IIcmc, is a suitable measure of the effectiveness of a surfactant in reducing surface tension and is given as:
.PI.cmc 20+2.3nRT(Γmax) log [CMC/C20 ]
n=1 which represents the number of ions whose surface concentration changes with the change in liquid phase suffactant concentration.
CMC/C20 =is the ratio of the critical micelle concentration to the bulk phase surfactant concentration necessary to reduce the surface tension of water by 20 dyn/cm.

A short description of series [7]: Surface tension at the water/air interface (Example 91). The series is classed as physicochemical. The conditions noted are these: 60 °C. On the procedure: An important characteristic feature that surfactants have is the tendency for them to absorb at the water/air interface in an oriented manner, thereby altering the interfacial free energy of that surface. The surface free energy per unit area or surface tension (γ), is a measure of this work and may be considered as the minimum amount of work required to bring sufficient surfactant molecules to the surface.
The surface tension (γ) value of C8 /C10 oxypropyl D-gluconamide was determined and is set forth below: […]

Series [8] can be described thus: Ross-Miles foam height assay of aldonamides (Examples 81-84). It counts as physicochemical. To be noted: 0.1% aldonamide, 40° C. (if not soluble, about 5°-10° C. above Krafft point), 0 ppm hardness. On the procedure: In the Ross-Miles method, 200 mL of a suffactant solution contained in a pipette of specified dimensions with a 2.9 -mm-i.d. orifice is allowed to fall 90 cm onto 50 mL of the same solution contained in a cylindrical vessel maintained at a given temperature by means of a water jacket. The height of the foam produced in the cylindrical vessel is read immediately after all the solution has run out of the pipette and then again after a given amount of time.
Using this method, the foam production (initial foam height in mm) and foam stability (final foam height after 10 minutes in mm) were measured at 0.1% aldonamtde concentration, 40° C. and 0 ppm (parts per million) hardness.

Regarding C8 /C10 oxypropyl D-gluconamide, the “am (area per molecule)” value in [1] amounted to 43.1 Å^2. The “p (packing parameter)” value in series [2] is on record as 0.503. Moreover, the “Appearance (Time)” value in series [3] (3.0% thickener in […] sodium lauryl sulfate shampoo), in [3] (4.0% thickener in […] sodium lauryl sulfate shampoo) and in series [3] (5.0% thickener in […] sodium lauryl sulfate shampoo) was “Clear” each time. Further, in series [4] (Example 86 shampoo (2395/22)), the “increased the viscosity of that composition” value was 109 times. Also, the Viscosity in [4] (Example 86 shampoo, 22° C.) is given as 2395 Centipoise. For the same substance, in the series with zein, the “% Zein Solubilized” value is 6%. Further, the “Increase (viscosity)” value in series [5] (1.0% thickener) is listed as 13 ×; in series [5] (2.0% thickener), 27 ×; in series [5] (3.0% thickener) it was 80 ×; in [5] (4.0% thickener) it was 148 ×; in [5] (5.0% thickener), 860 ×. In addition, the “.PI.cmc (surface pressure)” value in series [6] came to 38.5 dyn/cm. Besides, the “γ (surface tension)” value in [7] is reported as 29.2 dyn/cm. Besides, the “Foam Height Initial” value in series [8] was found to be 212 mm. In addition, the “Foam Height Final” value in [8] (after 10 minutes) came out at 165 mm.
